Test results taken from patent publication US20150157022A1, “S[…] CONTROL AND IMPROVED CROP TOLERANCE FROM COMBINATIONS OF 2,4-D-CHOLINE AND G[…] 2,4-D- AND GLUFOSINATE-TOLERANT SOYBEANS, CORN, COTTON” (Dow AgroSciences LLC, priority 2013, published 2015).
Several values for one entry are separate records, joined by “and”; a condition that tells them apart may be missing. Equal entries are not always repeated. Structures can show the parent of a compound that is named as a salt.

Columns and labels:
[1] = tested on: Salsola tragus L. (Russian thistle, SASKR); test: Field trial, post-emergence weed control (% visual control), SASKR; type: in vivo
Protocol: (§1) These trials were conducted under field conditions in multiple states in the United States, including but not limited to Arkansas, Illinois, Indiana, Minnesota, Mississippi,
(§2) Nebraska, Ohio, Oklahoma, Texas, South Carolina and South Dakota. […] Treatments were applied with small plot backpack sprayers, using pressurized air or carbon dioxide (CO2) as propellant. Pressure varied from 22-50 pounds per square inch (psi), with spray tips typically of a Flat Fan type applying water diluent at 15 gallons per acre (GPA). Boom sizes varied from 6.3-10 ft in width. Treatments were applied to soybean, cotton, corn or fallow crop land. Weed sizes varied, but all treatments were applied as post-emergence treatments to weeds from 2 leaf to 2 tiller growth stages varying from 2 to 15 inches in height. The weed spectrum included, but was not limited to, Amaranthus palmeri S. Wats. (Palmer amaranth, AMAPA), Conyza canadensis (L.) Cronq. (horseweed, ERICA), Salsola tragus L. (Russian thistle, SASKR) and Sesbania exaltata (hemp sesbania, SEBEX).
(§3) The 2,4-D-choline salt formulation was a 456 g ae/L SL. […] All treatments were mixed in water at appropriate formulated product rates to achieve the desired rates as shown based on a unit area of application (hectare). Treatments were rated at 2 to 28 days after application (DAA) as compared to the untreated control plants. The trial sites had naturally occurring populations of weeds. The treated plots and control plots were rated blind at various intervals after application.
(§4) Colby's equation was used to determine the herbicidal effects expected from the mixtures (Colby, S. R. Calculation of the synergistic and antagonistic response of herbicide combinations. Weeds 1967, 15, 20-22). A t-test (alpha=0.05) between Colby predictions and observed combinations was used to test for significant differences indicating synergy or antagonism using replicate data.
(§5) The following equation was used to calculate the expected activity of mixtures containing two active ingredients, A and B:
(§6) Expected=A+B−(A×B/100) • A=observed efficacy of active ingredient A at the same concentration as used in the mixture; • B=observed efficacy of active ingredient B at the same concentration as used in the mixture.

[2] = tested on: Sesbania exaltata (hemp sesbania, SEBEX); test: Field trial, post-emergence weed control (% visual control), SEBEX; type: in vivo
Protocol: as §1, §2, §3, §4, §5, §6

[3] = tested on: Conyza canadensis (L.) Cronq. (horseweed, ERICA); test: Field trial, post-emergence weed control (% visual control), ERICA; type: in vivo
Protocol: as §1, §2, §3, §4, §5, §6

[4] = tested on: Amaranthus palmeri S. Wats. (Palmer amaranth, AMAPA); test: Field trial, post-emergence weed control (% visual control), AMAPA; type: in vivo
Protocol: as §1, §2, §3, §4, §5, §6

[5] = tested on: AAD12 Soybean (GLXMA); test: Field crop tolerance trial in 2,4-D- and glufosinate-tolerant soybean (% visual injury, chlorosis, growth inhibition)
Protocol: as §1, §2
2,4-D- and glufosinate-tolerant soybeans, corn and cotton and optionally a glyphosate trait in a breeding (CP4 EPSPS) or a molecular stack (2mEPSPS) were used in all tolerance trials.
as §3, with “application. […]” for “application.”

CP(=O)(O)CCC(N)C(=O)O (stereo not shown) [Glufosinate-ammonium, ammonium (3-amino-3-carboxypropyl)(methyl)phosphinate]
Mean % weed control ([1]; 14 DAA, 542 g ae/ha): 12.5% | Mean % weed control ([1]; 21 DAA, 542 g ae/ha): 6.3% | Mean % weed control ([2]; 8 DAA, 542 g ae/ha): 73.8% | Mean % weed control ([2]; 16 DAA, 542 g ae/ha): 78.8% | Mean % weed control ([2]; 23 DAA, 542 g ae/ha): 65.0% | Mean % weed control ([3]; 7 DAA, 542 g ae/ha): 75.0% | Mean % weed control ([3]; 13 DAA, 542 g ae/ha): 85.0% | Mean % weed control ([3]; 22 DAA, 542 g ae/ha): 80.0% | Mean % weed control ([3]; 28 DAA, 542 g ae/ha): 98.0% | Mean % weed control ([4]; 7 DAA, 542 g ae/ha): 80.0% | Mean % weed control ([4]; 10 DAA, 542 g ae/ha): 54.3% | Mean % weed control ([4]; 13 DAA, 542 g ae/ha): 75.0% | Mean % weed control ([4]; 16 DAA, 542 g ae/ha): 65.0% | Mean % weed control ([4]; 21 DAA, 542 g ae/ha): 51.3% | Mean % weed control ([4]; 22 DAA, 542 g ae/ha): 56.3%

O=C(O)COc1ccc(Cl)cc1Cl [2,4-D-Choline salt, 2-hydroxy-N,N,N-trimethylethanaminium 2-(2,4-dichlorophenoxy)acetate]
Mean % crop chlorosis ([5]; 2 DAA, 2130 g ae/ha): 0.0% and 2.3% | Mean % crop injury ([5]; 2 DAA, 2130 g ae/ha): 3.5% and 5.0% | Mean % crop chlorosis ([5]; 3 DAA, 1065 g ae/ha): 0.0% | Mean % crop injury ([5]; 3 DAA, 1065 g ae/ha): 0.3% | Mean % crop chlorosis ([5]; 3 DAA, 2130 g ae/ha): 0.0% and 1.3% and 0.8% and 0.5% | Mean % crop injury ([5]; 3 DAA, 2130 g ae/ha): 0.3% | Mean % crop chlorosis ([5]; 4 DAA, 1065 g ae/ha): 0.0% | Mean % crop injury ([5]; 4 DAA, 1065 g ae/ha): 0.0% | Mean % crop chlorosis ([5]; 4 DAA, 2130 g ae/ha): 0.0% and 0.7% | Mean % crop injury ([5]; 4 DAA, 2130 g ae/ha): 1.0% | Mean % crop injury ([5]; 6 DAA, 1065 g ae/ha): 4.0% | Mean % crop injury ([5]; 6 DAA, 2130 g ae/ha): 4.0% | Mean % crop chlorosis ([5]; 7 DAA, 1065 g ae/ha): 0.0% | Mean % crop chlorosis ([5]; 7 DAA, 2130 g ae/ha): 0.0% and 1.7% and 1.3% and 3.0% | Mean % crop growth inhibition ([5]; 7 DAA, 2130 g ae/ha): 1% | Mean % crop injury ([5]; 7 DAA, 2130 g ae/ha): 4.0% and 13.3% | Mean % crop chlorosis ([5]; 8 DAA, 1065 g ae/ha): 0.0% | Mean % crop chlorosis ([5]; 8 DAA, 2130 g ae/ha): 0.0% | Mean % crop chlorosis ([5]; 9 DAA, 1065 g ae/ha): 0.0% | Mean % crop injury ([5]; 9 DAA, 1065 g ae/ha): 0.0% | Mean % crop chlorosis ([5]; 9 DAA, 2130 g ae/ha): 0.0% | Mean % crop injury ([5]; 9 DAA, 2130 g ae/ha): 0.0% | Mean % crop chlorosis ([5]; 13 DAA, 1065 g ae/ha): 0.0% | Mean % crop injury ([5]; 13 DAA, 1065 g ae/ha): 2.0% | Mean % crop chlorosis ([5]; 13 DAA, 2130 g ae/ha): 0.0% | Mean % crop injury ([5]; 13 DAA, 2130 g ae/ha): 3.3% | Mean % crop chlorosis ([5]; 14 DAA, 1065 g ae/ha): 0.0% | Mean % crop injury ([5]; 14 DAA, 1065 g ae/ha): 3.0% and 0.0% | Mean % crop chlorosis ([5]; 14 DAA, 2130 g ae/ha): 0.0% and 0.8% and 1.3% | Mean % crop growth inhibition ([5]; 14 DAA, 2130 g ae/ha): 0% | Mean % crop injury ([5]; 14 DAA, 2130 g ae/ha): 2.3% | Mean % crop chlorosis ([5]; 15 DAA, 2130 g ae/ha): 0.0% | Mean % crop growth inhibition ([5]; 15 DAA, 2130 g ae/ha): 0% | Mean % crop injury ([5]; 15 DAA, 2130 g ae/ha): 0.0% | Mean % weed control ([1]; 14 DAA, 1065 g ae/ha): 67.5% | Mean % weed control ([1]; 21 DAA, 1065 g ae/ha): 65.0% | Mean % weed control ([2]; 8 DAA, 800 g ae/ha): 32.5% | Mean % weed control ([2]; 16 DAA, 800 g ae/ha): 42.5% | Mean % weed control ([2]; 23 DAA, 800 g ae/ha): 38.8% | Mean % weed control ([3]; 7 DAA, 1065 g ae/ha): 40.0% | Mean % weed control ([3]; 13 DAA, 1065 g ae/ha): 40.0% | Mean % weed control ([3]; 22 DAA, 1065 g ae/ha): 40.0% | Mean % weed control ([3]; 28 DAA, 1065 g ae/ha): 30.0% | Mean % weed control ([4]; 7 DAA, 800 g ae/ha): 47.5% | Mean % weed control ([4]; 10 DAA, 1065 g ae/ha): 55.0% | Mean % weed control ([4]; 13 DAA, 1065 g ae/ha): 45.0% | Mean % weed control ([4]; 16 DAA, 800 g ae/ha): 62.5% | Mean % weed control ([4]; 21 DAA, 1065 g ae/ha): 38.8% | Mean % weed control ([4]; 22 DAA, 800 g ae/ha): 48.8%
